Data from EP4707280A1, “1,4-CINEOLE DERIVATIVE AND INTERMEDIATE THEREOF, HERBICIDE CONTAINING SAID DERIVATIVE AS ACTIVE INGREDIENT, METHOD FOR USING HERBICIDE, AND METHOD FOR PREPARING AGROCHEMICAL COMPOSITION” (HOKKO CHEMICAL INDUSTRY CO., LTD., priority 2023, dated 2024).

How the values were obtained:
Type in all cases: in vivo
[1] = tested on: Digitaria ciliaris; test: Test Example 7: herbicidal effect test by soil application in upland field (low dose); conditions: 7.5 g per 10 ares, sprayed one day after sowing, 14 days after application; for inhibition at 75 g/ha: Digitaria ciliaris, read-out: weed inhibition rate
Procedure, shortened: (§1)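 Upland alluvial loam pots, seeds mixed into top 1 cm of soil; one day after sowing, diluted emulsifiable concentrate sprayed on soil at 100 L/10 a, giving 7.5 g active ingredient/10 a. Duplicate pots; weed inhibition rate (%) scored 14 days after application.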

[2] = tested on: Echinochloa crus-galli; test: as above; conditions: 7.5 g per 10 ares, sprayed one day after sowing, 14 days after application; for inhibition at 75 g/ha: Echinochloa crus-galli, read-out: weed inhibition rate
Procedure, shortened: as §1

[3] = tested on: Digitaria ciliaris; test: Test Example 4: herbicidal effect test by stem and leaf treatment in upland field; conditions: 120 g per 10 ares, sprayed seven days after sowing, upland soil, 14 days after application; for inhibition at 1200 g/ha: Digitaria ciliaris, read-out: weed inhibition rate
[4] = tested on: Echinochloa crus-galli var. formosensis; test: Test Example 1: herbicidal effect test by soil application in paddy rice; conditions: 120 g active ingredient per 10 ares, applied immediately after sowing, flooded pots, 14 days after application; for pest or weed control at 1200 g/ha: Echinochloa crus-galli, soil, 336 h, read-out: weed inhibition rate
Procedure, shortened: (§2)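 Treatment: 120 g active ingredient per 10 ares as a water-diluted emulsifiable concentrate, dropped onto flooded pots immediately after sowing. Thirty seeds per species went 0–1 cm into puddled paddy soil with 16:16:16 fertilizer, with ~3 cm flooding maintained in a glass greenhouse.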

[5] = tested on: Scirpus juncoides; test: as above; conditions: 120 g active ingredient per 10 ares, applied immediately after sowing, flooded pots, 14 days after application; for pest or weed control at 1200 g/ha: Schoenoplectiella juncoides, soil, 336 h, read-out: weed inhibition rate
Procedure, shortened: as §2

[6] = tested on: Echinochloa crus-galli var. formosensis; test: Test Example 6: herbicidal effect test by application during growth period of paddy rice (low dose); conditions: 7.5 g per 10 ares, applied seven days after sowing, flooded pots, 14 days after application; for inhibition at 75 g/ha: Echinochloa crus-galli, read-out: weed inhibition rate
Procedure, shortened: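 Puddled, fertilised paddy soil was sown with 30 seeds per species and flooded to about 3 cm. After 7 days in a glass greenhouse, the diluted emulsifiable concentrate went into the water by dropper at 7.5 g/10 a. Effect scored at 14 days.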

[7] = tested on: Digitaria ciliaris; test: Test Example 3: herbicidal effect test by soil application in upland field; conditions: 120 g per 10 ares, sprayed one day after sowing, 14 days after application; for inhibition at 1200 g/ha: Digitaria ciliaris, read-out: weed inhibition rate
Procedure, shortened: (§3)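 Weed inhibition (%) was assessed 14 days after treatment, in duplicate per concentration group. Seeds had been mixed into the upper 1 cm of upland alluvial loam, and the soil surface was sprayed one day later with the diluted emulsifiable concentrate at 120 g active ingredient per 10 ares.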

[8] = tested on: Echinochloa crus-galli; test: as above; conditions: 120 g per 10 ares, sprayed one day after sowing, 14 days after application; for inhibition at 1200 g/ha: Echinochloa crus-galli, read-out: weed inhibition rate
Procedure, shortened: as §3

[9] = tested on: Echinochloa crus-galli; test: Test Example 4: herbicidal effect test by stem and leaf treatment in upland field; conditions: 120 g per 10 ares, sprayed seven days after sowing, upland soil, 14 days after application; for inhibition at 1200 g/ha: Echinochloa crus-galli, read-out: weed inhibition rate
[10] = tested on: Echinochloa crus-galli var. formosensis; test: Test Example 5: herbicidal effect test by soil application in paddy rice (low dose); conditions: 7.5 g per 10 ares, applied immediately after sowing, flooded pots, 14 days after application; for inhibition at 75 g/ha: Echinochloa crus-galli, soil, 336 h, read-out: weed inhibition rate
Procedure, shortened: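 Paddy-soil pots, weeds sown 0–1 cm deep and flooded to about 3 cm in a greenhouse. Emulsifiable concentrate diluted in water and dropped in right after sowing at 7.5 g active ingredient per 10 ares. Duplicates; effect scored 14 days after application.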

[11] = tested on: Digitaria ciliaris; test: Test Example 8: herbicidal effect test by stem and leaf treatment in upland field (low dose); conditions: 7.5 g per 10 ares, sprayed seven days after sowing, upland soil, 14 days after application; for inhibition at 75 g/ha: Digitaria ciliaris, read-out: weed inhibition rate
[12] = tested on: Echinochloa crus-galli; test: as above; conditions: 7.5 g per 10 ares, sprayed seven days after sowing, upland soil, 14 days after application; for inhibition at 75 g/ha: Echinochloa crus-galli, read-out: weed inhibition rate
[13] = tested on: Echinochloa crus-galli var. formosensis; test: Test Example 2: herbicidal effect test by application during growth period of paddy rice; conditions: 120 g per 10 ares, applied seven days after sowing, flooded pots, 14 days after application; for inhibition at 1200 g/ha: Echinochloa crus-galli, read-out: weed inhibition rate
Procedure, shortened: (§4)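 Paddy soil in flooded pots (water depth about 3 cm) was sown with weed seeds and kept in a glass greenhouse. Seven days after sowing, a diluted emulsifiable concentrate was applied by dropper at 120 g active ingredient per 10 ares. Weed inhibition was evaluated 14 days after application, in duplicate.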

[14] = tested on: Scirpus juncoides; test: as above; conditions: 120 g per 10 ares, applied seven days after sowing, flooded pots, 14 days after application; for inhibition at 1200 g/ha: Schoenoplectiella juncoides, read-out: weed inhibition rate
Procedure, shortened: as §4

Cc1cccc(C)c1CO[C@@H]1C[C@]2(C(C)C)O[C@@]1(C)C[C@@H]2I [1-777, (1R,2S,4S,5R)-5-[(2,6-dimethylphenyl)methoxy]-2-iodo-1-isopropyl-4-methyl-7-oxabicyclo[2.2.1]heptane]
≥ 80%: inhibition at 75 g/ha [1] | inhibition at 75 g/ha [2] | inhibition at 1200 g/ha [3] | pest or weed control at 1200 g/ha [4] | pest or weed control at 1200 g/ha [5] | inhibition at 75 g/ha [6] | inhibition at 1200 g/ha [7] | inhibition at 1200 g/ha [8] | inhibition at 1200 g/ha [9] | inhibition at 75 g/ha [10] | inhibition at 75 g/ha [11] | inhibition at 75 g/ha [12] | inhibition at 1200 g/ha [13] | inhibition at 1200 g/ha [14]

CC(C)[C@]12C[C@@H](OCc3c(F)cccc3F)[C@](C)(C[C@@H]1I)O2 [1-778, (1R,2S,4S,5R)-5-[(2,6-difluorophenyl)methoxy]-2-iodo-1-isopropyl-4-methyl-7-oxabicyclo[2.2.1]heptane]
≥ 80%: inhibition at 75 g/ha [1] | inhibition at 75 g/ha [2] | inhibition at 1200 g/ha [3] | pest or weed control at 1200 g/ha [4] | pest or weed control at 1200 g/ha [5] | inhibition at 75 g/ha [6] | inhibition at 1200 g/ha [7] | inhibition at 1200 g/ha [8] | inhibition at 1200 g/ha [9] | inhibition at 75 g/ha [10] | inhibition at 75 g/ha [11] | inhibition at 75 g/ha [12] | inhibition at 1200 g/ha [13] | inhibition at 1200 g/ha [14]

CC(C)[C@]12C[C@@H](OCc3c(F)cccc3Cl)[C@](C)(C[C@@H]1I)O2 [1-780, (1R,2S,4S,5R)-5-[(2-chloro-6-fluoro-phenyl)methoxy]-2-iodo-1-isopropyl-4-methyl-7-oxabicyclo[2.2.1]heptane]
≥ 80%: inhibition at 75 g/ha [1] | inhibition at 75 g/ha [2] | inhibition at 1200 g/ha [3] | pest or weed control at 1200 g/ha [4] | pest or weed control at 1200 g/ha [5] | inhibition at 75 g/ha [6] | inhibition at 1200 g/ha [7] | inhibition at 1200 g/ha [8] | inhibition at 1200 g/ha [9] | inhibition at 75 g/ha [10] | inhibition at 75 g/ha [11] | inhibition at 75 g/ha [12] | inhibition at 1200 g/ha [13] | inhibition at 1200 g/ha [14]

CC(C)[C@]12C[C@@H](OCc3ccccn3)[C@](C)(C[C@@H]1I)O2 [1-785, 2-[[(18,2R,4R,58)-5-iodo-4-isopropyl-1-methyl-7-oxabicyclo[2.2.1]heptan-2-yl]oxymethyl]pyridine]
≥ 80%: weed inhibition rate [1] | weed inhibition rate [2] | weed inhibition rate [3] | weed inhibition rate [4] | weed inhibition rate [5] | weed inhibition rate [6] | weed inhibition rate [7] | weed inhibition rate [8] | weed inhibition rate [9] | weed inhibition rate [10] | weed inhibition rate [11] | weed inhibition rate [12] | weed inhibition rate [13] | weed inhibition rate [14]

CC(C)[C@]12C[C@@H](OCc3cccs3)[C@](C)(C[C@@H]1I)O2 [1-788, (1R,2S,4S,5R)-2-iodo-1-isopropyl-4-methyl-5-(2-thienylmethoxy)-7-oxabicyclo[2.2.1]heptane]
≥ 80%: inhibition at 75 g/ha [1] | inhibition at 75 g/ha [2] | inhibition at 1200 g/ha [3] | pest or weed control at 1200 g/ha [4] | pest or weed control at 1200 g/ha [5] | inhibition at 75 g/ha [6] | inhibition at 1200 g/ha [7] | inhibition at 1200 g/ha [8] | inhibition at 1200 g/ha [9] | inhibition at 75 g/ha [10] | inhibition at 75 g/ha [11] | inhibition at 75 g/ha [12] | inhibition at 1200 g/ha [13] | inhibition at 1200 g/ha [14]

CC(C)[C@]12C[C@@H](OCc3ccsc3)[C@](C)(C[C@@H]1I)O2 [1-789, (1R,2S,4S,5R)-2-iodo-1-isopropyl-4-methyl-5-(3-thienylmethoxy)-7-oxabicyclo[2.2.1]heptane]
≥ 80%: inhibition at 75 g/ha [1] | inhibition at 75 g/ha [2] | inhibition at 1200 g/ha [3] | pest or weed control at 1200 g/ha [4] | pest or weed control at 1200 g/ha [5] | inhibition at 75 g/ha [6] | inhibition at 1200 g/ha [7] | inhibition at 1200 g/ha [8] | inhibition at 1200 g/ha [9] | inhibition at 75 g/ha [10] | inhibition at 75 g/ha [11] | inhibition at 75 g/ha [12] | inhibition at 1200 g/ha [13] | inhibition at 1200 g/ha [14]

CC(C)[C@@]12C[C@H](OCc3c(F)cccc3F)[C@@](C)(C[C@H]1I)O2 [1-1119, (1R,2S,4S,5R)-2-[(2,6-difluorophenyl)methoxy]-5-iodo-1-methyl-4-isopropyl-7-oxabicyclo[2.2.1]heptane]
≥ 80%: inhibition at 75 g/ha [1] | inhibition at 75 g/ha [2] | inhibition at 1200 g/ha [3] | pest or weed control at 1200 g/ha [4] | pest or weed control at 1200 g/ha [5] | inhibition at 75 g/ha [6] | inhibition at 1200 g/ha [7] | inhibition at 1200 g/ha [8] | inhibition at 1200 g/ha [9] | inhibition at 75 g/ha [10] | inhibition at 75 g/ha [11] | inhibition at 75 g/ha [12] | inhibition at 1200 g/ha [13] | inhibition at 1200 g/ha [14]

CC(C)C12CC(OCc3ccccc3Cl)C(C)(CC1Cl)O2 (centres unmarked) [1-1292, 5-chloro-2-[(2-chlorophenyl)methoxy]-1-methyl-4-isopropyl-7-oxabicyclo[2.2.1]heptane]
≥ 80%: inhibition at 75 g/ha [1] | inhibition at 75 g/ha [2] | inhibition at 1200 g/ha [3] | pest or weed control at 1200 g/ha [4] | pest or weed control at 1200 g/ha [5] | inhibition at 75 g/ha [6] | inhibition at 1200 g/ha [7] | inhibition at 1200 g/ha [8] | inhibition at 1200 g/ha [9] | inhibition at 75 g/ha [10] | inhibition at 75 g/ha [11] | inhibition at 75 g/ha [12] | inhibition at 1200 g/ha [13] | inhibition at 1200 g/ha [14]

CC(C)C12CC(OCc3ccccc3Br)C(C)(CC1Cl)O2 (centres unmarked) [1-1295, 2-[(2-bromophenyl)methoxy]-5-chloro-1-methyl-4-isopropyl-7-oxabicyclo[2.2.1]heptane]
≥ 80%: inhibition at 75 g/ha [1] | inhibition at 75 g/ha [2] | inhibition at 1200 g/ha [3] | pest or weed control at 1200 g/ha [4] | pest or weed control at 1200 g/ha [5] | inhibition at 75 g/ha [6] | inhibition at 1200 g/ha [7] | inhibition at 1200 g/ha [8] | inhibition at 1200 g/ha [9] | inhibition at 75 g/ha [10] | inhibition at 75 g/ha [11] | inhibition at 75 g/ha [12] | inhibition at 1200 g/ha [13] | inhibition at 1200 g/ha [14]

CC(C)C12CC(OCc3ccccc3I)C(C)(CC1Cl)O2 (centres unmarked) [1-1298, 5-chloro-2-[(2-iodophenyl)methoxy]-1-methyl-4-isopropyl-7-oxabicyclo[2.2.1]heptane]
≥ 80%: inhibition at 75 g/ha [1] | inhibition at 75 g/ha [2] | inhibition at 1200 g/ha [3] | pest or weed control at 1200 g/ha [4] | pest or weed control at 1200 g/ha [5] | inhibition at 75 g/ha [6] | inhibition at 1200 g/ha [7] | inhibition at 1200 g/ha [8] | inhibition at 1200 g/ha [9] | inhibition at 75 g/ha [10] | inhibition at 75 g/ha [11] | inhibition at 75 g/ha [12] | inhibition at 1200 g/ha [13] | inhibition at 1200 g/ha [14]
